This is an account of results in PMC9246869, “Allosteric inhibition of PPM1D serine/threonine phosphatase via an altered conformational state” (Nature Communications, 2022).

Experiment [1] concerns the target T1, PPM1D1–420 (Homo sapiens, UniProt O15297).
T1 construct: PPM1D1–420 was PCR-amplified from the synthesized gene with BsaI sites; His(6)-SUMO (N, cleaved yes); made in house; host or cells: E. coli BL21 (DE3)
T1 sequence (O15297 1-420): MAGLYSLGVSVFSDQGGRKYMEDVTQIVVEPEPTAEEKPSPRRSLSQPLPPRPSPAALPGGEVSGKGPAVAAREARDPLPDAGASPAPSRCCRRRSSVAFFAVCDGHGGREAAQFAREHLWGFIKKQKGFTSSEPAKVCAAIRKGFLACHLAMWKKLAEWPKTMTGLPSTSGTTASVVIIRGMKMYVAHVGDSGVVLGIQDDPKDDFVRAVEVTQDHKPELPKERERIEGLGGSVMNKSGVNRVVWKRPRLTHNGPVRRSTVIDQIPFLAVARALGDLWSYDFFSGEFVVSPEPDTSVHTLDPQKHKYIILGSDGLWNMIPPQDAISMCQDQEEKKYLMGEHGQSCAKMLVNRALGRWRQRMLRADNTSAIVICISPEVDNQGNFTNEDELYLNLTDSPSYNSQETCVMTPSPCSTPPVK
Description: Surface plasmon resonance (SPR). In kind it is binding. The settings on record: for Kd: read-out: KD. On the procedure:
SPR was carried out on the Biacore S200 (GE Healthcare) using Series S sensor chip NTA (GE BR-1005-32). The preparation of the chip surface was conducted according to the manufacturer’s indications. The running buffer contained 50 mM Tris (pH 7.5), 50 mM NaCl, 1 mM MgCl2, 0.5 mM TCEP, 0.005% (v/v) P20 surfactant, and 2% DMSO. PPM1D1–420 and PPM1D∆Flap were run under single-cycle mode due to the slow-off-rate kinetics. The two proteins were immobilized on the chip surface in flow cells 2 and 3 with a signal of ~1500–2000 RU at a rate of 5 μL/min while flow cell 1 was left blank as a reference. The running buffer was injected three times followed by the GSK2830371 analyte in solution. Injections were carried out at a flow rate of 50 μL/min with the analyte in a concentration series of 5-point, 3-fold ending at 400 nM top dose. The association and dissociation phases were monitored for 90 s and 600 s, respectively. Collected data were evaluated using the Biacore S200 Evaluation Software under 1:1 binding mode. PPM1D∆Hinge was run under multi-cycle mode due to its fast-on/fast-off kinetics. The protein was immobilized to give a signal of ~ 3000 RU. GSK2830371 analyte in solution was injected at a flow rate of 90 μL/min in a 10-pt, 2-fold concentration series ending at 15 μM top dose. The association and dissociation phases were monitored for 45 s and 150 s, respectively. Since GSK2830371 had issues with solubility/aggregation at high concentrations that caused artifacts in sensorgrams, only steady-state analysis was performed to extract Kd.

In experiment [2] the target is T1, PPM1D1–420. Description: Hydrogen–deuterium exchange mass spectrometry (HDX-MS). On the procedure:
Hydrogen–deuterium exchange in PPM1D proteins (PPM1D1–420, PPM1D∆Flap, and PPM1D∆Hinge) was monitored by incubating 27 pmoles of protein in storage buffer (50 mM Tris HCl pH 7.4, 500 mM NaCl, 10% glycerol, 10 mM MgCl2, 1 mM TCEP, H2O) with a 10-fold molar excess of GSK2830371 (270 pmoles) in DMSO, or 3.85% DMSO as a control. Due to the low solubility of the compound, the exact molar excess was unknown. […] The slow off-rate of the compound likely plays a role in this. The PPM1D:GSK/DMSO mix equilibrated for 15 min at room temperature, followed by the addition of a 15-fold excess of labeling buffer (20 mM HEPES, pD 7.5, 25 mM NaCl, 5 mM MgCl2, 0.1 mM TCEP, D2O) at 25 °C. Analysis of C-terminal truncations of PPM1D were performed without the DMSO and preincubation step. […]
All samples were digested immediately after quench by injecting directly into an M-class nanoAcquity UPLC with HDX technology (Waters) for online digestion with an Enzymate BEH pepsin column [2.1 × 30 mm, 5 μm (Waters)] and UPLC peptide separation. […] Back-exchange was calculated based on deuterium uptake observed in peptides within PPM1D that are solvent accessible, lack structure, and display these characteristics in their uptake profile (high deuterium incorporation that remains a flat line over 4 h time course). […]

Where “and” joins values, the source holds several entries; their conditions need not be identical. Identical values can stand only once. Like-named read-outs stand apart in the source and are kept apart here. Some results are limits rather than exact numbers.

Turning to `Cc1ncc(Cl)cc1NCc1ccc(C(=O)N[C@@H](CC2CCCC2)C(=O)NC2CC2)s1` [GSK2830371], the koff on PPM1D1–420 [1] (Fig 3D, Average of 3 trials) was 0.00024 s⁻¹; at PPM1D1–420 [1] (Fig 3D, individual trials), 0.00011 s⁻¹ and 0.00028 s⁻¹ and 0.00033 s⁻¹. Further, the on-rate (kon) at PPM1D1–420 [1] (Fig 3D, Average of 3 trials) was 433000 M⁻¹ s⁻¹; on PPM1D1–420 [1] (Fig 3D, individual trials), 595000 M⁻¹ s⁻¹ and 343000 M⁻¹ s⁻¹ and 362000 M⁻¹ s⁻¹; on PPM1D1–420 [1] (read-out: kon (SPR), PPM1D1–420, Fig. 3D) it was 430000 ± 100000 M⁻¹ s⁻¹. The Kd was 1.2 nM at PPM1D1–420 [1] (Fig 3D, Average of 3 trials); 0.8 nM and 1 nM on PPM1D1–420 [1] (Fig 3D, individual trials). In addition, the “protein in the exposed population (bimodal distribution, residues 270-278) in presence of compound” value on PPM1D1–420 [2] is above 95%.
